Results published in the Kinase Knowledgebase extract (Sharma et al. 2016).

What follows are compounds tested against ROCK2 (human) (UniProt O75116) (assay: Inhibition of ROCK2 Kinase Activity).
Chain of ROCK2 (human) (O75116 whole entry, looked up): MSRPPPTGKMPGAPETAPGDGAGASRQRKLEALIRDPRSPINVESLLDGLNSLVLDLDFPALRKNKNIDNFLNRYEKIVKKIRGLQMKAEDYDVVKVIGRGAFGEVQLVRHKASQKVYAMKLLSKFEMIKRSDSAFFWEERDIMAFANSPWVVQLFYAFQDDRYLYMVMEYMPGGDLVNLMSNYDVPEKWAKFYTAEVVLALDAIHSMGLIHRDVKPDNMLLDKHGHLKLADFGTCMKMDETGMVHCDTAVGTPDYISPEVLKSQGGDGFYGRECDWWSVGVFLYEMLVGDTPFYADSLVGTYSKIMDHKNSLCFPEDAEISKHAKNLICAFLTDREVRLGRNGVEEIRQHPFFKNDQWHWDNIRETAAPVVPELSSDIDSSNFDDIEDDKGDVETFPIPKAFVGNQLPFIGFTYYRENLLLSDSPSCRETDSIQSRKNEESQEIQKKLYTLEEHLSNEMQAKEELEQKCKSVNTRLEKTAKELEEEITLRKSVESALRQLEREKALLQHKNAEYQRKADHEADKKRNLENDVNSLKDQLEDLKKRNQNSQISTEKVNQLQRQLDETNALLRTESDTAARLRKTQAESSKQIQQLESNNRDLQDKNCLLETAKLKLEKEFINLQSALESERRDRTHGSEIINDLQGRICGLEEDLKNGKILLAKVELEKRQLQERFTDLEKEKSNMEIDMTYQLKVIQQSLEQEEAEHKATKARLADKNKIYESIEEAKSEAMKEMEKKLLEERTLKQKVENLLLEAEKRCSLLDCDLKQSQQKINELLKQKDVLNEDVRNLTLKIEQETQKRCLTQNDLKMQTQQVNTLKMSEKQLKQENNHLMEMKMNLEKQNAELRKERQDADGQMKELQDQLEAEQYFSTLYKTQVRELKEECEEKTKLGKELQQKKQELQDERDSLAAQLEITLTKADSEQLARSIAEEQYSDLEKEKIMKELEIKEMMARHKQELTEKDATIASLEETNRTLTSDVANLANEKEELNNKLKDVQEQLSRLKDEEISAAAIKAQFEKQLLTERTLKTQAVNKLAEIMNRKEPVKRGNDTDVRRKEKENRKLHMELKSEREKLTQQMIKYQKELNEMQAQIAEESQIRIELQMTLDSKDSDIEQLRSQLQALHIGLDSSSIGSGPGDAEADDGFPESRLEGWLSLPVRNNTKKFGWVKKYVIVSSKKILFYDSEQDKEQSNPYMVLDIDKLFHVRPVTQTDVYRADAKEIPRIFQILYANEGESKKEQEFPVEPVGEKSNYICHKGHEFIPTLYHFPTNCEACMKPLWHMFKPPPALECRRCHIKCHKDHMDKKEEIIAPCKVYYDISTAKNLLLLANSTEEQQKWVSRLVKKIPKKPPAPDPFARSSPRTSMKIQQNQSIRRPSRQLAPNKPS

SMILES | IC50 [nM]
CCSCC(=O)NCC(N)c1ccc(C(=O)Nc2ccncc2)cc1 (configuration not stated) | 50 to 500
Cc1ccc(CC(=O)N2CCCC2C(N)c2ccc(C(=O)Nc3ccncc3)cc2)cc1 (configuration not stated) | 500 to 5000
CC[C@@H](NC(=O)CC(N)c1ccc(C(=O)Nc2ccncc2)cc1)c1ccccc1 (some centres not stated) | 50 to 500
NC(CC(=O)NCc1ccc([N+](=O)[O-])cc1)c1ccc(C(=O)Nc2ccncc2)cc1 (configuration not stated) | 50 to 500
CN(CC(N)c1ccc(C(=O)Nc2ccncc2)cc1)C(=O)Cc1ccc(F)cc1 (configuration not stated) | 500 to 5000
CS(=O)(=O)c1cccc(C(=O)NCC(N)c2ccc(C(=O)Nc3ccncc3)cc2)c1 (configuration not stated) | 500 to 5000
NC(CC(=O)NCc1ccc(C(F)(F)F)cc1)c1ccc(C(=O)Nc2ccncc2)cc1 (configuration not stated) | 50 to 500
COc1ccc(CNC(=O)NCC(N)c2ccc(C(=O)Nc3ccncc3)cc2)cc1 (configuration not stated) | 50 to 500
CC(C)(C(=O)NC[C@@H](N)c1ccc(C(=O)Nc2ccncc2)cc1)c1ccc(Cl)cc1 | 50 to 500
CN(CC(N)c1ccc(C(=O)Nc2ccncc2)cc1)C(=O)Cc1csc2ccccc12 (configuration not stated) | 500 to 5000
NC(c1ccc(C(=O)Nc2ccncc2)cc1)C1CCCN1C(=O)Cc1cccc(Br)c1 (configuration not stated) | 50 to 500
NC(c1ccc(C(=O)Nc2ccncc2)cc1)C1CCCN1C(=O)C1(c2ccc(F)cc2)CCC1 (configuration not stated) | 500 to 5000
NC(CNC(=O)C1Cc2ccccc21)c1ccc(C(=O)Nc2ccncc2)cc1 (configuration not stated) | 50 to 500
CN(CC(N)c1ccc(C(=O)Nc2ccncc2)cc1)C(=O)Cc1cccc(Cl)c1 (configuration not stated) | 500 to 5000
NC(CNC(=O)Cc1ccc(-c2ccccc2)cc1)c1ccc(C(=O)Nc2ccncc2)cc1 (configuration not stated) | 500 to 5000
NC(CNC(=O)c1ccc2[nH]nnc2c1)c1ccc(C(=O)Nc2ccncc2)cc1 (configuration not stated) | 500 to 5000
NC(CC(=O)Nc1ccc2cc[nH]c2c1)c1ccc(C(=O)Nc2ccncc2)cc1 (configuration not stated) | 50 to 500
CN(C)CCNC(=O)CC(N)c1ccc(C(=O)Nc2ccncc2)cc1 (configuration not stated) | 50 to 500
NC(CC(=O)NC1Cc2ccccc2C1)c1ccc(C(=O)Nc2ccncc2)cc1 (configuration not stated) | 50 to 500
CN(CC(N)c1ccc(C(=O)Nc2ccncc2)cc1)C(=O)C1(c2ccc(F)cc2)CCC1 (configuration not stated) | 500 to 5000
NC(c1ccc(C(=O)Nc2ccncc2)cc1)C1CCCN1C(=O)C1(c2ccc(F)cc2F)CC1 (configuration not stated) | 500 to 5000
CC(=O)Nc1ccc(C(=O)NCC(N)c2ccc(C(=O)Nc3ccncc3)cc2)cc1 (configuration not stated) | 500 to 5000
COc1ccc(CCNC(=O)CC(N)c2ccc(C(=O)Nc3ccncc3)cc2)cc1 (configuration not stated) | 50 to 500
NC(CC(=O)NCc1cccs1)c1ccc(C(=O)Nc2ccncc2)cc1 (configuration not stated) | 50 to 500
NC(c1ccc(C(=O)Nc2ccncc2)cc1)C1CCCN1C(=O)Cc1c(F)cccc1Cl (configuration not stated) | 500 to 5000
NC(c1ccc(C(=O)Nc2ccncc2)cc1)C1CCCN1C(=O)C1CCSc2ccccc21 (configuration not stated) | 500 to 5000

SMILES | IC50 [nM]
NC(CNC(=S)Nc1ccc(OC(F)(F)F)cc1)c1ccc(C(=O)Nc2ccncc2)cc1 (configuration not stated) | 500 to 5000
COc1ccc(CC(=O)N(C)CC(N)c2ccc(C(=O)Nc3ccncc3)cc2)cc1F (configuration not stated) | 500 to 5000
NC(CNC(=O)C(c1ccccc1)C1CCCC1)c1ccc(C(=O)Nc2ccncc2)cc1 (configuration not stated) | 500 to 5000
NC(CC(=O)Nc1ccccc1)c1ccc(C(=O)Nc2ccncc2)cc1 (configuration not stated) | 50 to 500
CN(CC(N)c1ccc(C(=O)Nc2ccncc2)cc1)C(=O)C1(c2ccccc2)CC1 (configuration not stated) | 500 to 5000
Cc1cccc(CN2CCC(NC(=O)CC(N)c3ccc(C(=O)Nc4ccncc4)cc3)CC2)c1 (configuration not stated) | 50 to 500
NC(CNC(=O)CCC1CCCC1)c1ccc(C(=O)Nc2ccncc2)cc1 (configuration not stated) | 50 to 500
NC(c1ccc(C(=O)Nc2ccncc2)cc1)C1CCCN1C(=O)C1(c2ccc(F)c(F)c2)CC1 (configuration not stated) | 500 to 5000
CCCCCCCCC(=O)NCC(N)c1ccc(C(=O)Nc2ccncc2)cc1 (configuration not stated) | 50 to 500
CN(CC(N)c1ccc(C(=O)Nc2ccncc2)cc1)C(=O)C1CCCc2sccc21 (configuration not stated) | 500 to 5000
NC(CNC(=O)C1CCOC1)c1ccc(C(=O)Nc2ccncc2)cc1 (configuration not stated) | 500 to 5000
N[C@H](CC(=O)N[C@@H]1CCCc2ccccc21)c1ccc(C(=O)Nc2ccncc2)cc1 | < 50
NC(c1ccc(C(=O)Nc2ccncc2)cc1)C1CCCN1C(=O)Cc1ccc(F)cc1 (configuration not stated) | 500 to 5000
COc1ccc(C2(C(=O)N3CCCC3C(N)c3ccc(C(=O)Nc4ccncc4)cc3)CC2)cc1 (configuration not stated) | 500 to 5000
Cc1ccccc1CNC(=O)NCC(N)c1ccc(C(=O)Nc2ccncc2)cc1 (configuration not stated) | 50 to 500
CC(C)(C(=O)NC[C@H](N)c1ccc(C(=O)Nc2ccncc2)cc1)c1ccc(Cl)cc1 | 500 to 5000
NC(CNC(=O)c1ccc2ncccc2c1)c1ccc(C(=O)Nc2ccncc2)cc1 (configuration not stated) | 500 to 5000
NC(CC(=O)NCc1ccc(F)c(C(F)(F)F)c1)c1ccc(C(=O)Nc2ccncc2)cc1 (configuration not stated) | 50 to 500
CC(C)(C)NC(=O)NCC(N)c1ccc(C(=O)Nc2ccncc2)cc1 (configuration not stated) | 500 to 5000
NC(CNC(=O)c1cccc(Br)c1)c1ccc(C(=O)Nc2ccncc2)cc1 (configuration not stated) | 500 to 5000
NC(c1ccc(C(=O)Nc2ccncc2)cc1)C1CCCN1C(=O)Cc1cccc(Cl)c1 (configuration not stated) | 500 to 5000
NC(CNC(=O)C1CCCCc2ccc(F)cc21)c1ccc(C(=O)Nc2ccncc2)cc1 (configuration not stated) | 50 to 500
CN(CC(N)c1ccc(C(=O)Nc2ccncc2)cc1)C(=O)Cc1ccc(Cl)cc1Cl (configuration not stated) | 500 to 5000
NC(c1ccc(C(=O)Nc2ccncc2)cc1)C1CCCN1C(=O)C1(c2ccc(Cl)c(Cl)c2)CCC1 (configuration not stated) | 500 to 5000
COc1ccc(CNC(=O)CC(N)c2ccc(C(=O)Nc3ccncc3)cc2)cc1OC (configuration not stated) | 50 to 500
CN(CC(N)c1ccc(C(=O)Nc2ccncc2)cc1)C(=O)C(C)(C)c1cccs1 (configuration not stated) | 500 to 5000

SMILES | IC50 [nM]
NC(c1ccc(C(=O)Nc2ccncc2)cc1)C1CCCN1C(=O)C1(c2ccc(F)cc2Cl)CC1 (configuration not stated) | 500 to 5000
NC(CNC(=O)Nc1ccc(-c2ccccc2)cc1)c1ccc(C(=O)Nc2ccncc2)cc1 (configuration not stated) | 500 to 5000
COc1cccc(C(=O)NCC(N)c2ccc(C(=O)Nc3ccncc3)cc2)c1 (configuration not stated) | 500 to 5000
NC(CNC(=O)c1ccc2ccccc2c1)c1ccc(C(=O)Nc2ccncc2)cc1 (configuration not stated) | 50 to 500
NC(CC(=O)NCc1ccc(OC(F)(F)F)cc1)c1ccc(C(=O)Nc2ccncc2)cc1 (configuration not stated) | 50 to 500
CC(CNC(=O)CC(N)c1ccc(C(=O)Nc2ccncc2)cc1)c1ccc(Cl)cc1 (configuration not stated) | 50 to 500
COc1ccc2[nH]c(C(=O)NCC(N)c3ccc(C(=O)Nc4ccncc4)cc3)cc2c1 (configuration not stated) | 500 to 5000
CN(CC(N)c1ccc(C(=O)Nc2ccncc2)cc1)C(=O)C1(c2ccc(Cl)cc2Cl)CC1 (configuration not stated) | 500 to 5000
NC(CNC(=O)C1(c2ccc(F)c(F)c2)CCC1)c1ccc(C(=O)Nc2ccncc2)cc1 (configuration not stated) | 50 to 500
NC(CNC(=O)c1csc(-c2ccccc2)n1)c1ccc(C(=O)Nc2ccncc2)cc1 (configuration not stated) | 500 to 5000
NC(CC(=O)NCC1CCCO1)c1ccc(C(=O)Nc2ccncc2)cc1 (configuration not stated) | 50 to 500
NC(CNC(=O)CNC(=O)c1ccccc1)c1ccc(C(=O)Nc2ccncc2)cc1 (configuration not stated) | 50 to 500
NC(CNC(=O)C1(c2cccs2)CC1)c1ccc(C(=O)Nc2ccncc2)cc1 (configuration not stated) | 50 to 500
COc1ccccc1C(=O)NCC(N)c1ccc(C(=O)Nc2ccncc2)cc1 (configuration not stated) | 500 to 5000
NC(CNC(=O)c1ccc2ccccc2n1)c1ccc(C(=O)Nc2ccncc2)cc1 (configuration not stated) | 50 to 500
N[C@@H](CNC(=O)C1(c2ccc(F)cc2)CCCC1)c1ccc(C(=O)Nc2ccncc2)cc1 | 500 to 5000
NC(c1ccc(C(=O)Nc2ccncc2)cc1)C1CCCN1C(=O)C1(c2ccc(F)c(F)c2)CCC1 (configuration not stated) | 500 to 5000
COC1CCC(C(=O)NCC(N)c2ccc(C(=O)Nc3ccncc3)cc2)CC1 (configuration not stated) | 500 to 5000
Cc1cc(Cl)cc(Cl)c1CNC(=O)CC(N)c1ccc(C(=O)Nc2ccncc2)cc1 (configuration not stated) | 50 to 500
CCNC(=S)NCC(N)c1ccc(C(=O)Nc2ccncc2)cc1 (configuration not stated) | 500 to 5000
NC(CC(=O)NCCn1cccn1)c1ccc(C(=O)Nc2ccncc2)cc1 (configuration not stated) | 50 to 500
Cc1cccc(CC(=O)NCC(N)c2ccc(C(=O)Nc3ccncc3)cc2)c1 (configuration not stated) | 50 to 500
CC[C@H](NC(=O)CC(N)c1ccc(C(=O)Nc2ccncc2)cc1)c1ccccc1 (some centres not stated) | 50 to 500
NC(CNC(=O)c1ccsc1)c1ccc(C(=O)Nc2ccncc2)cc1 (configuration not stated) | 50 to 500
NC(c1ccc(C(=O)Nc2ccncc2)cc1)C1CCCN1C(=O)Cc1cccc(F)c1 (configuration not stated) | 500 to 5000
